Laboratory results reported in the CheMixHub viscosity set.

Assay: xn = mol fraction of the nth substance listed
Conditions: 101 kPa

CC(C)CCO + c1ccccc1
viscosity [mPa·s]
Conditions	293.15 K	298.15 K	303.15 K	308.15 K
x1 = 0.05	0.673	0.627	0.586	0.548
x1 = 0.1	0.705	0.656	0.612	0.573
x1 = 0.15	0.739	0.688	0.641	0.6
x1 = 0.2	0.777	0.723	0.673	0.629
x1 = 0.25	0.819	0.761	0.708	0.661
x1 = 0.3	0.866	0.804	0.748	0.697
x1 = 0.35	0.919	0.852	0.791	–
x1 = 0.4	0.979	0.906	0.84	–
x1 = 0.45	1.046	0.967	0.896	–
x1 = 0.5	1.124	1.037	0.96	–
x1 = 0.55	1.214	1.119	1.033	–
x1 = 0.6	1.321	1.214	1.118	–
x1 = 0.65	1.447	1.326	1.219	–
x1 = 0.7	1.6	1.462	1.339	–
x1 = 0.75	1.789	1.629	–	–
